Assay results as given in article PMC6478789, “A chemical toolbox for the study of bromodomains and epigenetic signaling” (Nature Communications, 2019).
pKd: −log10 of the molar value.

What was measured:
PBRM1(5) = PBRM1(5) (Homo sapiens, UniProt Q86U86); test: BROMOscan ligand-binding assay
Source text: (§6) BROMOscan is a binding assay based on the well-known KINOMEscan technology. This assay measures the binding of a DNA-tagged bromodomain to an immobilized BRD ligand. If an inhibitor is present, it will compete with the bromodomain binding to the immobilized ligand, resulting in reduction of a quantitative PCR (qPCR) signal in a dose-dependent manner.

BRD9 = molecular target: T1, BRD9 (Homo sapiens, UniProt Q9H8M2); test: BROMOscan ligand-binding assay; conditions: KD, BROMOscan Gene Symbol BRD9
T1 sequence (Q9H8M2 136-240 limits assumed): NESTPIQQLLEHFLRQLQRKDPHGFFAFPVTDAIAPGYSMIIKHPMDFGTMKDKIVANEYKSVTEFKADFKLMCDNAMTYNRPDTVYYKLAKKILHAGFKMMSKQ
Source text: as §6

BRPF1 = molecular target: T2, BRPF1 (Homo sapiens, UniProt P55201); test: BROMOscan ligand-binding assay; conditions: KD, BRPF1
T2 sequence (P55201 628-732 limits assumed): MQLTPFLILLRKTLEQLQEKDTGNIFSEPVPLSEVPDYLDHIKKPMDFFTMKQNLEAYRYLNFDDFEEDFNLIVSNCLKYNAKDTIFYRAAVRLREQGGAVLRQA
Source text: as §6

BRD3(1,2) = BRD3(1,2) (Homo sapiens, UniProt Q15059); test: BROMOscan ligand-binding assay; conditions: KD, BROMOscan Gene Symbol BRD3(1,2)
Source text: as §6

ATAD2A = molecular target: T3, ATAD2A (Homo sapiens, UniProt Q6PL18); test: BROMOscan ligand-binding assay
T3 sequence (Q6PL18 980-1092 limits assumed): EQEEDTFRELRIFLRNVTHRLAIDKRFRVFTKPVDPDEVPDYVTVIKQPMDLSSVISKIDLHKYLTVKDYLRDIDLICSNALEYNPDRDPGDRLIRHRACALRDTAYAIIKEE
Source text: as §6

BRD8(1) = BRD8(1) (Homo sapiens, UniProt Q9H0E9); test: BROMOscan ligand-binding assay
Source text: as §6

BRD1 = molecular target: T4, BRD1 (Homo sapiens, UniProt O95696); test: BROMOscan ligand-binding assay
T4 sequence (O95696 562-666 limits assumed): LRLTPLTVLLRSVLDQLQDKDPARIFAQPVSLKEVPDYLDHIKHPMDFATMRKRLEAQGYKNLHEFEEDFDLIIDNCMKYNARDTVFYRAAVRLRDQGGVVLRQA
Source text: as §6

BRD8(2) = BRD8(2) (Homo sapiens, UniProt Q9H0E9); test: BROMOscan ligand-binding assay
Source text: as §6

BAZ2A = molecular target: T5, BAZ2A (Homo sapiens, UniProt Q9UIF9); test: BROMOscan ligand-binding assay
T5 sequence (Q9UIF9 1793-1897 limits assumed): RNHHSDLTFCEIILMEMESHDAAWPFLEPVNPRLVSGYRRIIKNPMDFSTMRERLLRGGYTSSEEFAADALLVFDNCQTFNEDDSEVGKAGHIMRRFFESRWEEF
Source text: as §6

BRD3(2) = BRD3(2) (Homo sapiens, UniProt Q15059); test: BROMOscan ligand-binding assay; conditions: KD, BROMOscan Gene Symbol BRD3(2)
Source text: as §6

BAZ2B = molecular target: T6, BAZ2B (Homo sapiens, UniProt Q9UIF8); test: BROMOscan ligand-binding assay; conditions: KD, BROMOscan Gene Symbol BAZ2B
T6 sequence (Q9UIF8 2060-2164 limits assumed): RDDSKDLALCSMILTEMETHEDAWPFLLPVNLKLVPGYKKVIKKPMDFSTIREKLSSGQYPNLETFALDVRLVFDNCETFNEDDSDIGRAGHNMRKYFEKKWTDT
Source text: as §6

WDR9(2) = WDR9(2) (Homo sapiens, UniProt Q9NSI6); test: BROMOscan ligand-binding assay; conditions: KD, WDR9(2)
Source text: as §6

BRDT(2) = BRDT(2) (Homo sapiens, UniProt Q58F21); test: BROMOscan ligand-binding assay; conditions: KD, BROMOscan Gene Symbol BRDT(2)
Source text: as §6

53BP1 = 53BP1 (Homo sapiens, UniProt Q12888); test: Temperature shift assay (non-BRD reader domains); assay type: binding; conditions: 10µM compound
Method: (§1) Temperature shift assays have been described by Fedorov et al.[46]. Recombinant protein domains (bromodomain or kinases) at a concentration of 2 μM in 10 mM HEPES, pH 7.5, and 500 mM NaCl were mixed with 10 μM of chemical probes. Temperature-dependent protein unfolding profiles were measured using a Real-Time PCR Mx3005p machine (Stratagene).
(§2) Wu et al., Supplementary figures and tables 14
(§3) Supplementary Table 3: Selectivity screening data (non-BRD reader domains):
(§4) Temperature shift assay data of BRD probes screened against a diver se panel of methyl-lysine
(§5) reader domains. Compounds were screened a concentration of 10 µM. Shown are temperature

SND1 = molecular target: T7, SND1 (Homo sapiens, UniProt Q7KZF4); test: Temperature shift assay (non-BRD reader domains); assay type: binding; conditions: 10µM compound
T7 sequence (Q7KZF4 729-787 limits assumed): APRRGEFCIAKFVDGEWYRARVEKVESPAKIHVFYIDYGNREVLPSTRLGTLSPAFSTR
Method: as §1, §2, §3, §4, §5

TDRD3 = TDRD3 (Homo sapiens, UniProt Q9H7E2); test: Temperature shift assay (non-BRD reader domains); assay type: binding; conditions: 10µM compound
Method: as §1, §2, §3, §4, §5

FXR1 = FXR1 (Homo sapiens, UniProt P51114); test: Temperature shift assay (non-BRD reader domains); assay type: binding; conditions: 10µM compound
Method: as §1, §2, §3, §4, §5

EED = EED (Homo sapiens, UniProt O75530); test: Temperature shift assay (non-BRD reader domains); assay type: binding; conditions: 10µM compound
Method: as §1, §2, §3, §4, §5

RBBP1 = test: Temperature shift assay (non-BRD reader domains); assay type: binding; conditions: 10µM compound
Method: as §1, §2, §3, §4, §5

BRPF3 = BRPF3 (Homo sapiens, UniProt Q9ULD4); test: Temperature shift assay (non-BRD reader domains); assay type: binding; conditions: 10µM compound
Method: as §1, §2, §3, §4, §5

UHRF1 = molecular target: T8, UHRF1 (Homo sapiens, UniProt Q96T88); test: Temperature shift assay (non-BRD reader domains); assay type: binding; conditions: 10µM compound
T8 sequence (Q96T88 126-285 limits assumed): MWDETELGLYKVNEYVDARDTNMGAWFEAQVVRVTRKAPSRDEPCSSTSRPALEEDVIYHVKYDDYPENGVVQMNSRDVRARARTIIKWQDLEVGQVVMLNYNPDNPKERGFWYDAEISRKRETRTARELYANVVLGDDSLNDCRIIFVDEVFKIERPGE
Method: as §1, §2, §3, §4, §5

WDR5 = WDR5 (Homo sapiens, UniProt P61964); test: Temperature shift assay (non-BRD reader domains); assay type: binding; conditions: 10µM compound
Method: as §1, §2, §3, §4, §5

BRD4(1,2) = BRD4(1,2) (Homo sapiens, UniProt O60885); test: BROMOscan ligand-binding assay
Source text: as §6

[1] = KD (BROMOscan), sheet prints no unit (nM)

Sequence of BRD8(2) (Q9H0E9 1099-1207 limits assumed): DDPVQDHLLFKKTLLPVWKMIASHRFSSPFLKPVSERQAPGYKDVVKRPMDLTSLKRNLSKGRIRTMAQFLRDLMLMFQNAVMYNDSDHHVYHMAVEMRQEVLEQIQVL
Sequence of BRD8(1) (Q9H0E9 706-811 limits assumed): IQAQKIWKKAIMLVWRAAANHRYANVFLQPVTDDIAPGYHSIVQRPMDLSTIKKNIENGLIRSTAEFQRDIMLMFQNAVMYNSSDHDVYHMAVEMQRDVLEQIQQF
Sequence of PBRM1(5) (Q86U86 653-763 limits assumed): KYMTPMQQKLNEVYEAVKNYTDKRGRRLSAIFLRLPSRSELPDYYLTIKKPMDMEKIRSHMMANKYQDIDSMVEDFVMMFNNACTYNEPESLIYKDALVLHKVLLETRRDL
Sequence of 53BP1 (Q12888 1484-1603 limits assumed, species assumed): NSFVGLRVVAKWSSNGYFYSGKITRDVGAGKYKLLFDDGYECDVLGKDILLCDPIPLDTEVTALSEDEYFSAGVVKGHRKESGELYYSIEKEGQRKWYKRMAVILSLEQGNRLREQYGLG
Sequence of BRPF3 (Q9ULD4 1076-1159 limits assumed, species assumed): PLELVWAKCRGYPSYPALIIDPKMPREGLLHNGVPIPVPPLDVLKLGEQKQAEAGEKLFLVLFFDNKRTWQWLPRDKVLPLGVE
Sequence of TDRD3 (Q9H7E2 555-615 limits assumed, species assumed): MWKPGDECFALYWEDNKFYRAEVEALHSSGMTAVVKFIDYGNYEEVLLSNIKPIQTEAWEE
Sequence of EED (O75530 whole entry, species assumed, the tested form may be a part): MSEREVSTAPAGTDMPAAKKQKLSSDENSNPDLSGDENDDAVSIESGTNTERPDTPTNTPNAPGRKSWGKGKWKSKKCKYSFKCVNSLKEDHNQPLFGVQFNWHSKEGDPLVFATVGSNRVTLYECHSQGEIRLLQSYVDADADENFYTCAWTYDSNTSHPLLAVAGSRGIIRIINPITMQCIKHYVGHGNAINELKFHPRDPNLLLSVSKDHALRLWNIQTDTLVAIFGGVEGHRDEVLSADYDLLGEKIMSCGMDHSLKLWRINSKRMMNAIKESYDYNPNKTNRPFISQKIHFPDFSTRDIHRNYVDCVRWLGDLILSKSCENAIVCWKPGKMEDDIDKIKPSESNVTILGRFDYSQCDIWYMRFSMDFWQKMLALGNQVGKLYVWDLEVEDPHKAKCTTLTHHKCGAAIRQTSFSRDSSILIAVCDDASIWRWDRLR
Sequence of WDR9(2) (Q9NSI6 1313-1418 limits assumed): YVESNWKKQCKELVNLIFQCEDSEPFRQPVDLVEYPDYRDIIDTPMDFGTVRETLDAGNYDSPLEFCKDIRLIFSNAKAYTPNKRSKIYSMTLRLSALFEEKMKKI
Sequence of BRD3(1,2) (Q15059 24-416 limits assumed): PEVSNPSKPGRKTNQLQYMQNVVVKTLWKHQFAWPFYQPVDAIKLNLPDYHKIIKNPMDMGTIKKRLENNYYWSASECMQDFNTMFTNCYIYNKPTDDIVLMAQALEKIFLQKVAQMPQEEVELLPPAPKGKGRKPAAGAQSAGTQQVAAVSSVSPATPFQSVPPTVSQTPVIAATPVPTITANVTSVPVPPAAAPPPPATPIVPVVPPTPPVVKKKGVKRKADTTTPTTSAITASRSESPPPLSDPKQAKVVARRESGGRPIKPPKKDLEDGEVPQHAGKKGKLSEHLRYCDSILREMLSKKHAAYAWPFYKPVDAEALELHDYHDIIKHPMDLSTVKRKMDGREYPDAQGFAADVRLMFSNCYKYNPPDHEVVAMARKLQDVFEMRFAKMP
Sequence of BRD3(2) (Q15059 306-415 limits assumed): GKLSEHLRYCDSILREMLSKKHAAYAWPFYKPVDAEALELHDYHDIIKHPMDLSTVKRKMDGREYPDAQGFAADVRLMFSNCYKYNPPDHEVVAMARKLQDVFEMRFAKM
Sequence of FXR1 (P51114 2-132 limits assumed, species assumed): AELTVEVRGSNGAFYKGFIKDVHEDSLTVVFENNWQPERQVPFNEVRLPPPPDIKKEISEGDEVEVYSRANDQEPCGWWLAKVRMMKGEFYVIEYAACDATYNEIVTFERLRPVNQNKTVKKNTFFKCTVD

CCC(=O)N1CCOc2c(cc(-c3ccc(OC)c(OC)c3)cc2OCC2CCCN(C)C2)C1 (stereo not drawn) [I-CBP112]
Kd (PBRM1(5); [1]): > 30000 nM | pKd (PBRM1(5); KD, PBRM1(5)): < 4.00 | pKd (BRD9): 4.60 | pKd (BRPF1): 4.70 | pKd (BRD3(1,2)): 5.20 | Kd (ATAD2A; [1]): > 30000 nM | pKd (ATAD2A; KD, BROMOscan Gene Symbol ATAD2A): < 4.00 | Kd (BRD8(1); [1]): > 30000 nM | pKd (BRD8(1); KD, BROMOscan Gene Symbol BRD8(1)): < 4.00 | pKd (BRD1): 4.29 | Kd (BRD8(2); [1]): > 30000 nM | pKd (BRD8(2); KD, BROMOscan Gene Symbol BRD8(2)): < 4.00 | pKd (BAZ2A): 4.15 | pKd (BRD3(2)): 4.70 | pKd (BAZ2B): 4.55 | pKd (WDR9(2)): 4.23 | pKd (BRDT(2)): 4.31 | Tm (C) 10µM, temperature shift (53BP1): 0.3 Kelvin | Tm (C) 10µM, temperature shift (SND1): -0.7 Kelvin | Tm (C) 10µM, temperature shift (TDRD3): -0.6 Kelvin | Tm (C) 10µM, temperature shift (FXR1): 0.9 Kelvin | Tm (C) 10µM, temperature shift (EED): -0.5 Kelvin | Tm (C) 10µM, temperature shift (RBBP1): -0.1 Kelvin | Tm (C) 10µM, temperature shift (BRPF3): 0.0 Kelvin | Tm (C) 10µM, temperature shift (UHRF1): 0.0 Kelvin | Tm (C) 10µM, temperature shift (WDR5): -0.2 Kelvin | pKd (BRD4(1,2)): 4.96
